Data from US10179115B2, “Methods for treating malaria using potassium channel inhibitors” (THE CHILDREN'S MEDICAL CENTER CORPORATION, priority 2015, dated 2019).
Read-outs that look alike come from different tables or passages of the source.

What was measured:
[1] = system: P. falciparum 7G8; assay: in vitro growth inhibition of P. falciparum 7G8; type: cell-based; conditions: Plasmodium falciparum
[2] = system: P. falciparum W2mef; assay: microbe, parasite or virus in culture; type: cell-based; conditions: Plasmodium falciparum; for IC50: read-out: IC50 (mean ± 95% confidence interval)
[3] = system: P. falciparum 3D7; assay: in vitro growth inhibition of P. falciparum 3D7 over one asexual cycle; type: cell-based; conditions: Plasmodium falciparum
Text: This nonlinear regression curve is representative of seven assays, each performed in triplicate.

[4] = system: human Plasmodium strains; assay: in vitro growth inhibition, all human Plasmodium strains tested; type: cell-based
[5] = canines; cited from earlier work
[6] = system: P. yoelii; type: in vivo; conditions: IK-1-/- mice, 400 mg/kg twice daily, days 8 to 15
Protocol: IK-1^−/− and IK-1^+/+ mice were treated with senicapoc twice daily on postinoculation days 8 to 15 (highlighted area).
To test whether senicapoc targets the Gardos channel in malaria-infected erythrocytes, we assessed the ability of P. yoe-lii to grow in the presence and absence of the channel in vivo using a Gardos knockout (IK-1^−/−) mouse model (Shmukler B E, Hsu A, Alves J, Trudel M, Rust M B, Hubner C A, Rivera A, Alper S L. 2013. N-ethylmaleimide activates a Cl(−)-independent component of K(+) flux in mouse erythrocytes. Blood Cells Mol Dis 51:9-16 and Rifler M, Bobbala D, Koka S, Boini K M, Mahmud H, Kasinathan R S, Shumilina E, Amann K, Beranek G, Sausbier U, Ruth P, Sausbier M, Lang F, Huber S M. 2010. […] The inventors then assessed the effectiveness of senicapoc in the presence and absence of the channel in vivo. P. yoelii-infected IK-1^−/− and IK-1^+/+ mice were treated with senicapoc 400 mg/kg twice daily.

[7] = system: P. falciparum 3D7; assay: growth inhibition through the 48-hour asexual blood stage by microscopy and flow cytometry; type: cell-based, Plasmodium falciparum; conditions: P<0.008
Protocol: Parasitemia was determined by flow cytometry and confirmed with microscopy (not shown). […] Data presented are representative of three replicates.
Mean fluorescence intensity (WI), determined by flow cytometry, is shown as a measure of parasite viability. […] The data point for “No drug” at 48 h was gated for schizonts only (20% of infected cells) to eliminate signal from reinvaded ring-stage parasites. Data for other time points were not gated, as schizonts represented 5% of infected cells.
To determine senicapoc's activity through the 48-hour asexual blood stage of the parasite, growth inhibition of P. falciparum 3D7 was characterized throughout the cycle by microscopy and flow cytometry.

[8] = patients with SCD; cited from earlier work
[9] = primates, daily doses of 1,000 mg/kg for 9 months; cited from earlier work
[10] = system: P. knowlesi H1; assay: in vitro growth inhibition of P. knowlesi H1 cultured in rhesus erythrocytes; type: cell-based; conditions: Plasmodium knowlesi, Erythrocyte, in Macaca mulatta
Text: (§1) To identify a relationship between senicapoc activity and human erythrocytes, P. knowlesi H1 cultured in rhesus erythrocytes and P. knowlesi YH-1 adapted for culture in human erythrocytes were each treated with senicapoc. There was no difference between the senicapoc IC50s for H1 and YH-1 (P=0.14) (Table 1). Senicapoc was similarly effective against parasitized human and rhesus erythrocytes.

[11] = cited from earlier work
[12] = human and animal studies for SCD; cited from earlier work
[13] = system: P. yoelii 17X-NL; assay: in vivo efficacy against blood-stage parasites in infected C57BL/6 mice
Protocol: C57BL/6 mice infected with P. yoelii 17X-NL were treated by gavage with vehicle or senicapoc 400 or 800 mg/kg daily from days 2 to 10 post-infection (highlighted area) to mimic a preventive therapy.
FIG. 7 is a line graph showing senicapoc suppressed parasite growth in an in vivo murine model following established infection. C57BL/6 mice infected with P. yoelii 17X-NL were treated with vehicle or senicapoc 400 mg/kg twice daily from day 8 to day 15 postinfection (highlighted area) to mimic treatment of an active infection.
To establish in vivo efficacy against blood-stage parasites, C57BL/6 mice infected with P. yoelii 17X-NL (nonlethal strain) were treated with vehicle or senicapoc. […] Parasitemia increased after the drug was stopped (FIG. 6).

[14] = system: P. knowlesi YH-1; assay: in vitro growth inhibition of P. knowlesi YH-1 adapted for culture in human erythrocytes; type: cell-based; conditions: Plasmodium knowlesi, Erythrocyte
Text: as §1

[15] = patients with sickle cell disease; cited from earlier work
[16] = P. falciparum 7G8, Res CQ, read-out: IC50 (mean ± 95% confidence interval)
[17] = P. falciparum 3D7, read-out: IC50 (mean ± 95% confidence interval)
[18] = read-out: IC50 (mean ± 95% confidence interval)
[19] = read-out: IC90 (mean ± 95% confidence interval)

Question: With `CCN(CC)CCCC(C)Nc1ccnc2cc(Cl)ccc12` (stereo not drawn) [CQ, chloroquine] as the compound, how does the IC50 ([1]; 7G8, read-out: IC50 (mean ± 95% confidence interval)) read?
Answer: The IC50 was 0.0979 ± 0.0204 µM.

Question: And the IC50 [2]?
Answer: The IC50 was 0.316 ± 0.135 µM.

Question: And the IC50 ([3]; 3D7, read-out: IC50 (mean ± 95% confidence interval))?
Answer: Its IC50 is 0.0156 ± 0.00331 µM.

Question: With `C[C@H]1[C@@H](O)O[C@@H]2O[C@@]3(C)CC[C@H]4[C@H](C)CC[C@@H]1[C@@]24OO3` [DHA, dihydroartemisinin] as the compound, how does the IC50 [1, 16] read?
Answer: Its IC50 is 0.00165 ± 0.00124 µM.

Question: What about the IC50 [2] of the same compound?
Answer: The IC50 was 0.00516 ± 0.00428 µM.

Question: What about the IC50 [3, 17] of the same compound?
Answer: Its IC50 is 0.00273 ± 0.00155 µM.

Question: For `OC(c1cc(C(F)(F)F)nc2c(C(F)(F)F)cccc12)C1CCCCN1` (stereo not drawn) [MQ, mefloquine], which IC50 [1, 16] is on record?
Answer: The IC50 was 0.00363 ± 0.00058 µM.

Question: What about the IC50 [2] of the same compound?
Answer: The IC50 was 0.0267 ± 0.0155 µM.

Question: What about the IC50 [3, 17] of the same compound?
Answer: The IC50 was 0.0101 ± 0.00783 µM.

Question: With `NC(=O)C(c1ccccc1)(c1ccc(F)cc1)c1ccc(F)cc1` [senicapoc, 2,2-bis(4-fluorophenyl)-2-phenylacetamide] as the compound, how does the “IC90 higher than the IC50” value [4] read?
Answer: Its value is < 2 fold.

Question: And the “serum concentrations at which cardiotoxicity developed” value [5]?
Answer: Its value is “exceeded 18 M”.

Question: And the IC50 [1, 16]?
Answer: The IC50 was 10.9 ± 2.3 µM.

Question: What about the IC90 ([1]; P. falciparum 7G8, Res CQ, read-out: IC90 (mean ± 95% confidence interval)) of the same compound?
Answer: Its IC90 is 22.3 ± 9.52 µM.

Question: And the “activity against P. yoelii” value [6]?
Answer: The value was “active”.

Question: What about the “Nucleic acid content measured by mean fluorescence intensity (MFI)” value ([7]; at 36 h, treated cultures) of the same compound?
Answer: Its value is “weaker”.

Question: What about the “Parasitemia measured by flow cytometry” value ([7]; by 48 h postinvasion, treated cultures compared to control) of the same compound?
Answer: The value was “reduced”.

Question: And the “frequency of vasoocclusive pain episodes” value [8]?
Answer: The value was “failed to modify”.

Question: What about the physiological disease markers [8] of the same compound?
Answer: The physiological disease markers was “improved”.

Question: What about the tolerability [9] of the same compound?
Answer: The tolerability was “well tolerated”.

Question: And the IC50 [10, 18]?
Answer: The IC50 was 17.5 ± 6.74 µM.

Question: And the IC90 [10, 19]?
Answer: Its IC90 is 31.4 ± 11.8 µM.

Question: And the IC50 [2]?
Answer: The IC50 was 9.24 ± 3.13 µM.

Question: And the IC90 [2, 19]?
Answer: The IC90 was 12.3 ± 1.82 µM.

Question: And the protein binding [11]?
Answer: Its protein binding is “highly protein bound”.

Question: And the tolerability [12]?
Answer: Its tolerability is “well tolerated”.

Question: And the parasitemia ([13]; prophylaxis on postinoculation days 2 to 10, by day 10, vehicle 12%, P=0.04)?
Answer: Its parasitemia is 4.3%.

Question: And the parasitemia ([13]; treatment 400 mg/kg twice daily on postinoculation days 8 to 15, beyond day 13, not statistically significant (P=0.058))?
Answer: Its parasitemia is “lower parasitemia”.

Question: And the IC50 [3, 17]?
Answer: Its IC50 is 6.74 ± 0.25 µM.

Question: And the IC90 ([3]; P. falciparum 3D7, read-out: IC90 (mean ± 95% confidence interval))?
Answer: Its IC90 is 10.2 ± 2.07 µM.

Question: What about the IC50 ([3]; blood-stage P. falciparum 3D7, FIG. 1, read-out: IC50) of the same compound?
Answer: Its IC50 is 6.7 µM.

Question: And the IC50 [14, 18]?
Answer: Its IC50 is 11 ± 1.38 µM.

Question: And the IC90 [14, 19]?
Answer: The IC90 was 37.4 ± 1.19 µM.

Question: What about the “peak concentrations achieved in human trials” value [15] of the same compound?
Answer: The value was 337 nM.
